Data published in PubChem BioAssay (NCI).
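Following 48 hours of exposure in 96-well plates, responses at five concentrations were used to interpolate endpoints linearly. Abbreviation: GI50, concentration required for 50% inhibition of growth. TGI marks complete inhibition of growth.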

What was measured:
Experiment in all cases: inhibition of tumour cell growth, NCI panel, 48 h
[1] = test system: COLO 205 colon
[2] = test system: IGROV1 ovarian
[3] = test system: MDA-MB-435
[4] = test system: OVCAR-5 ovarian
[5] = test system: A498 renal
[6] = test system: ACHN renal
[7] = test system: NCI-H522 lung
[8] = test system: UO-31 renal
[9] = test system: SR leukemia
[10] = test system: NCI-H23 lung
[11] = test system: PC-3 prostate
[12] = test system: MOLT-4 leukemia
[13] = test system: MCF7 breast
[14] = test system: LOX IMVI melanoma
[15] = test system: HCT-116 colon
[16] = test system: MDA-MB-231 breast
[17] = test system: HS 578T breast
[18] = test system: NCI-H460 lung
[19] = test system: A549 NSCLC
[20] = test system: OVCAR-8 ovarian
[21] = test system: OVCAR-3 ovarian
[22] = test system: SK-MEL-2 melanoma
[23] = test system: KM12 colon
[24] = test system: SK-MEL-5 melanoma
[25] = test system: TK-10 renal
[26] = test system: CAKI-1 renal
[27] = test system: 786-0 renal
[28] = test system: CCRF-CEM leukemia
[29] = test system: SF-539 CNS
[30] = test system: NCI-H226 lung

Fc1cnc(NC2CC2)nc1-c1cnc2ccc(N3CCOCC3)cn12 gave a TGI [1] of 428 nM, a GI50 [2] of 268 nM and a TGI [2] of 17500 nM. It also gave a GI50 [3] of 272 nM, a TGI [3] of 992 nM and a GI50 [4] of 188 nM. The TGI [4] was 3130 nM, the GI50 [5] was 168 nM and the TGI [5] was 430 nM. For the same compound, the GI50 [6] was 160 nM, the TGI [6] was 10600 nM and the GI50 [7] was 374 nM. The TGI [7] was 6110 nM, the GI50 [8] was 282 nM and the TGI [8] was 11100 nM. The GI50 [9] was 128 nM, the GI50 [10] was 242 nM and the TGI [10] was 957 nM. For the same compound, the GI50 [11] was 276 nM, the TGI [11] was 8600 nM and the GI50 [12] was 346 nM. The GI50 [13] was 272 nM, the TGI [13] was 6910 nM and the GI50 [14] was 90 nM. The TGI [14] was 12500 nM, the GI50 [15] was 160 nM and the TGI [15] was greater than 56300 nM. It also gave a GI50 [16] of 203 nM, a TGI [16] of 1680 nM and a GI50 [17] of 265 nM. For the same compound, the TGI [17] was 2460 nM, the GI50 [18] was 291 nM and the TGI [18] was 10200 nM. For the same compound, the GI50 [19] was 292 nM, the TGI [19] was greater than 64300 nM and the GI50 [20] was 284 nM. For the same compound, the TGI [20] was greater than 73900 nM, the GI50 [21] was 258 nM and the TGI [21] was greater than 32600 nM. The GI50 [22] was 218 nM, the TGI [22] was 641 nM and the GI50 [23] was 237 nM. The TGI [23] was 3970 nM, the GI50 [24] was 231 nM and the TGI [24] was 706 nM. The GI50 [25] was 357 nM, the TGI [25] was 54200 nM and the GI50 [26] was 122 nM. For the same compound, the TGI [26] was 12500 nM, the GI50 [27] was 322 nM and the TGI [27] was 22800 nM. It also gave a GI50 [28] of 325 nM, a TGI [28] greater than 100000 nM and a GI50 [29] of 164 nM. For the same compound, the TGI [29] was 538 nM, the GI50 [30] was 201 nM and the TGI [30] was 1390 nM.
